Measurements taken from patent US12281122B1, “PI3K inhibitors” (Cogent Biosciences, Inc., priority 2023, dated 2025).

Tests used:
[1] = tested on: T47D (PI3Kα-H1047R) cell line; assay: HTRF phospho-AKT(S473) cell assay in T47D cells; format: cell-based, human; conditions: Homo sapiens; HTRF phospho-AKT(S473), T47D (PI3Kα-H1047R) cells, 2 hours compound incubation
How it was run: (§1)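 Cells plated overnight (T47D in RPMI/10% FBS/0.2 units/mL insulin; SKBR3 in McCoy's 5A/10% FBS), then given 12-point 1:3 compound series (top 5 μM T47D, 10 μM SKBR3; ≤0.5% DMSO) for 2 h at 37° C. SKBR3 stimulated with 70 ng/ml PDGF-BB for final 15 min. Lysate pAKT(S473) by HTRF; IC50 calculated.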

[2] = tested on: SKBR3 (PI3Kα-Wild Type) cell line; assay: HTRF phospho-AKT(S473) cell assay in SKBR3 cells; format: cell-based, human; conditions: Homo sapiens, SK-BR-3; HTRF phospho-AKT(S473), SKBR3 (PI3Kα-Wild Type) cells, 2 hours compound incubation, PDGF-BB stimulated
How it was run: as §1

Compound | IC50 [1] [nM] | IC50 [2] [nM]
Cc1cc([C@@H](C)Nc2ccc(Cl)nc2C(=O)NS(C)(=O)=O)c2nc(N3C[C@@H]4[C@H](C3)[C@H]4c3nn(C)c(C)c3F)n(C)c(=O)c2c1 [Compound 462, 6-chloro-3-(((R)-1-(2-((1R,5S,6R)-6-(4-fluoro-1,5-dimethyl-1H-pyrazol-3-yl)-3-azabicyclo[3.1.0]hexan-3-yl)-3,6-dimethyl-4-oxo-3,4-dihydroquinazolin-8-yl)ethyl)amino)-N-(methylsulfonyl) picolinamide] | < 250 | ≥ 5000
Cc1cc([C@@H](C)Nc2ccc(Cl)nc2C(=O)NS(C)(=O)=O)c2nc(N3C[C@@H]4[C@H](C3)[C@H]4c3noc(C)n3)n(C)c(=O)c2c1 [Compound 465, 6-chloro-3-(((R)-1-(3,6-dimethyl-2-((1R,5S,6R)-6-(5-methyl-1,2,4-oxadiazol-3-yl)-3-azabicyclo[3.1.0]hexan-3-yl)-4-oxo-3,4-dihydroquinazolin-8-yl)ethyl)amino)-N-(methylsulfonyl) picolinamide] | < 250 | 1000 to 5000
Cc1cc([C@@H](C)Nc2ccc(Cl)nc2C(=O)NS(C)(=O)=O)c2nc(N3C[C@@H]4[C@H](C3)[C@H]4c3nn(C)cc3F)n(C3CC3)c(=O)c2c1 [Compound 466, 6-chloro-3-(((R)-1-(3-cyclopropyl-2-((1R,5S,6R)-6-(4-fluoro-1-methyl-1H-pyrazol-3-yl)-3-azabicyclo[3.1.0]hexan-3-yl)-6-methyl-4-oxo-3,4-dihydroquinazolin-8-yl)ethyl)amino)-N-(methylsulfonyl) picolinamide] | 250 to 500 | ≥ 5000
Cc1cc([C@@H](C)Nc2ccc(Cl)nc2C(=O)NS(C)(=O)=O)c2nc(N3C[C@@H]4[C@H](C3)[C@H]4c3ccn(C(F)F)n3)n(C)c(=O)c2c1 [Compound 470, 6-chloro-3-(((R)-1-(2-((1R,5S,6R)-6-(1-(difluoromethyl)-1H-pyrazol-3-yl)-3-azabicyclo[3.1.0]hexan-3-yl)-3,6-dimethyl-4-oxo-3,4-dihydroquinazolin-8-yl)ethyl)amino)-N-(methylsulfonyl) picolinamide] | < 250 | 1000 to 5000
Cc1cc([C@@H](C)Nc2ccc(Cl)nc2C(=O)NS(C)(=O)=O)c2nc(N3C[C@@H]4[C@H](C3)[C@H]4c3ccnn3C(F)F)n(C)c(=O)c2c1 [Compound 471, 6-chloro-3-(((R)-1-(2-((1R,5S,6R)-6-(1-(difluoromethyl)-1H-pyrazol-5-yl)-3-azabicyclo[3.1.0]hexan-3-yl)-3,6-dimethyl-4-oxo-3,4-dihydroquinazolin-8-yl)ethyl)amino)-N-(methylsulfonyl) picolinamide] | < 250 | 1000 to 5000
Cc1cc([C@@H](C)Nc2ccc(Cl)nc2C(=O)NS(C)(=O)=O)c2nc(N3C[C@@H]4[C@H](C3)[C@H]4c3cc4ccccn4n3)n(C)c(=O)c2c1 [Compound 473] | 250 to 500 | ≥ 5000
COc1cc([C@H]2[C@@H]3CN(c4nc5c([C@@H](C)Nc6ccc(Cl)nc6C(=O)NS(C)(=O)=O)cc(C)cc5c(=O)n4C)C[C@@H]32)ccn1 [Compound 474, 6-chloro-3-(((R)-1-(2-((1R,5S,6S)-6-(2-methoxypyridin-4-yl)-3-azabicyclo[3.1.0]hexan-3-yl)-3,6-dimethyl-4-oxo-3,4-dihydroquinazolin-8-yl)ethyl)amino)-N-(methylsulfonyl) picolinamide] | 250 to 500 | ≥ 5000
Cc1cc([C@@H](C)Nc2ccc(Cl)nc2C(=O)NS(C)(=O)=O)c2nc(N3C[C@@H]4[C@H](C3)[C@H]4c3ccn(C4CC4)n3)n(C)c(=O)c2c1 [Compound 475, 6-chloro-3-(((R)-1-(2-((1R,5S,6R)-6-(1-cyclopropyl-1H-pyrazol-3-yl)-3-azabicyclo[3.1.0]hexan-3-yl)-3,6-dimethyl-4-oxo-3,4-dihydroquinazolin-8-yl)ethyl)amino)-N-(methylsulfonyl) picolinamide] | 250 to 500 | 1000 to 5000
Cc1cc([C@@H](C)Nc2ccc(Cl)nc2C(=O)NS(C)(=O)=O)c2nc(N3C[C@@H]4[C@H](C3)[C@H]4c3csc(C)n3)n(C)c(=O)c2c1 [Compound 476, 6-chloro-3-(((R)-1-(3,6-dimethyl-2-((1R,5S,6R)-6-(2-methylthiazol-4-yl)-3-azabicyclo[3.1.0]hexan-3-yl)-4-oxo-3,4-dihydroquinazolin-8-yl)ethyl)amino)-N-(methylsulfonyl) picolinamide] | 250 to 500 | 1000 to 5000

Continued, values first:

IC50 [1] [nM] | IC50 [2] [nM] | Compound
250 to 500 | ≥ 5000 | Cc1cc([C@@H](C)Nc2ccc(Cl)nc2C(=O)NS(C)(=O)=O)c2nc(N3CCC(c4nn(C(F)F)cc4F)CC3)n(C)c(=O)c2c1 [Compound 463, (R)-6-chloro-3-((1-(2-(4-(1-(difluoromethyl)-4-fluoro-1H-pyrazol-3-yl)piperidin-1-yl)-3,6-dimethyl-4-oxo-3,4-dihydroquinazolin-8-yl)ethyl)amino)-N-(methylsulfonyl) picolinamide]
250 to 500 | ≥ 5000 | Cc1cc([C@@H](C)Nc2ccc(Cl)nc2C(=O)NS(C)(=O)=O)c2nc(N3CCC(c4c(F)cnn4C(F)F)CC3)n(C)c(=O)c2c1 [Compound 464, (R)-6-chloro-3-((1-(2-(4-(1-(difluoromethyl)-4-fluoro-1H-pyrazol-5-yl)piperidin-1-yl)-3,6-dimethyl-4-oxo-3,4-dihydroquinazolin-8-yl)ethyl)amino)-N-(methylsulfonyl) picolinamide]
< 250 | ≥ 5000 | CCn1ncc(F)c1C1CCN(c2nc3c([C@@H](C)Nc4ccc(Cl)nc4C(=O)NS(C)(=O)=O)cc(C)cc3c(=O)n2C)CC1 [Compound 467, (R)-6-chloro-3-((1-(2-(4-(1-ethyl-4-fluoro-1H-pyrazol-5-yl)piperidin-1-yl)-3,6-dimethyl-4-oxo-3,4-dihydroquinazolin-8-yl)ethyl)amino)-N-(methylsulfonyl) picolinamide]
< 250 | ≥ 5000 | Cc1cc([C@@H](C)Nc2ccc(Cl)nc2C(=O)NS(C)(=O)=O)c2nc(N3CCC(c4nccc(C)n4)CC3)n(C)c(=O)c2c1 [Compound 468, (R)-6-chloro-3-((1-(3,6-dimethyl-2-(4-(4-methylpyrimidin-2-yl)piperidin-1-yl)-4-oxo-3,4-dihydroquinazolin-8-yl)ethyl)amino)-N-(methylsulfonyl) picolinamide]
250 to 500 | ≥ 5000 | Cc1cc([C@@H](C)Nc2ccc(Cl)nc2C(=O)NS(C)(=O)=O)c2nc(N3CCC(c4ncn(CC(F)(F)F)n4)CC3)n(C)c(=O)c2c1 [Compound 469, (R)-6-chloro-3-((1-(3,6-dimethyl-4-oxo-2-(4-(1-(2,2,2-trifluoroethyl)-1H-1,2,4-triazol-3-yl)piperidin-1-yl)-3,4-dihydroquinazolin-8-yl)ethyl)amino)-N-(methylsulfonyl) picolinamide]
< 250 | ≥ 5000 | COCCn1ncc(F)c1C1CCN(c2nc3c([C@@H](C)Nc4ccc(Cl)nc4C(=O)NS(C)(=O)=O)cc(C)cc3c(=O)n2C)CC1 [Compound 472, (R)-6-chloro-3-((1-(2-(4-(4-fluoro-1-(2-methoxyethyl)-1H-pyrazol-5-yl)piperidin-1-yl)-3,6-dimethyl-4-oxo-3,4-dihydroquinazolin-8-yl)ethyl)amino)-N-(methylsulfonyl) picolinamide]
